Reference: US6489348B1, “Fungicidal mixtures based on amide compounds and pyridine derivatives” (BASF Aktiengesellschaft, priority 1997, dated 2002)

System: powdery mildew of wheat (Erysiphe graminis forma specialis tritici)
Experiment: Activity against powdery mildew of wheat (protective spray test on potted seedlings)
Type: in vivo
Details: evaluated after 7 days
Description: The active ingredients, separately or together, are formulated as 10% emulsion in a mixture of 63% by weight of cyclohexanone and 27% by weight of emulsifier, and diluted with water to the desired concentration.
Evaluation is carried out by determining the infected leaf areas in percent. These percentages are converted into efficacies. The efficacy (W) is calculated as follows using Abbot's formula: […]
α corresponds to the fungal infection of the treated plants in % and β corresponds to the fungal infection of the untreated (control) plants in % An efficacy of 0 means that the infection level of the treated plants corresponds to that of the untreated control plants; an efficacy of 100 means that the treated plants were not infected.
The expected efficacies of the mixtures of the active ingredients were determined using Colby's formula [R. S. Colby, Weeds 15, 20-22 (1967)] and compared with the observed efficacies.
Colby formula: E=x+y −x·y/100
E expected efficacy, expressed in % of the untreated control, when using the mixture of the active ingredients A and B at the concentrations a and b x efficacy, expressed in % of the untreated control, when using active ingredient A at a concentration of a y efficacy, expressed in % of the untreated control, when using active ingredient B at a concentration of b Leaves of potted […] seedlings of the variety “Fruhgold” were sprayed to runoff point with an aqueous formulation of active ingredient prepared from a stock solution consisting of 10% of active ingredient, 63% of cyclohexanone and 27% of emulsifier. 24 hours after the spray coating had dried on, the leaves were dusted with spores of powdery mildew of wheat (Erysiphe graminis forma specialis tritici). The test plants were subsequently kept in a greenhouse at 20-24° C. and 60-90% relative atmospheric humidity. After 7 days, the extent of the mildew development was determined visually in % infection of the total leaf area.

[1] = 16 ppm active ingredient in the spray liquor
[2] = 63 ppm active ingredient in the spray liquor

Structure (SMILES) | Efficacy in % of the untreated control [1] [%] | Efficacy in % of the untreated control [2] [%]
O=C(Nc1ccccc1-c1ccc(Cl)cc1)c1cccnc1Cl [I.2] | 0 | 0
O=C(Nc1ccccc1-c1ccc(F)cc1)c1cccnc1Cl [I.1] | 0 | 0
